# Experimental data taken from the supplement of paper PMC10307832.
# Experiments:
# Assay in all cases: relative viability (nuclei count vs DMSO), 5 days (fraction); higher = more cells survive
# JZL-184 + Foretinib = compound: C1CN(CCC1C(C2=CC3=C(C=C2)OCO3)(C4=CC5=C(C=C4)OCO5)O)C(=O)OC6=CC=C(C=C6)[N+](=O)[O-] [JZL-184] + COc1cc2c(Oc3ccc(NC(=O)C4(C(=O)Nc5ccc(F)cc5)CC4)cc3F)ccnc2cc1OCCCN1CCOCC1 [Foretinib] (partner 0.25 µM)
# In short: (§1)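 Lung cancer cell lines were pin-tool dosed in 1536-well plates on the day after seeding, with either a lone drug or a fixed anchor-drug dose plus five library-drug doses (not always all listed) in √10 steps. Nuclei were counted on 4× images after 5 days. Relative viability is the ratio of treated-well to vehicle-well nuclei counts, with each value a median of duplicate plates.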
# JZL-184 + Dasatinib = compound: C1CN(CCC1C(C2=CC3=C(C=C2)OCO3)(C4=CC5=C(C=C4)OCO5)O)C(=O)OC6=CC=C(C=C6)[N+](=O)[O-] [JZL-184] + Cc1nc(Nc2ncc(C(=O)Nc3c(C)cccc3Cl)s2)cc(N2CCN(CCO)CC2)n1 [Dasatinib] (partner 0.075 µM)
# In short: as §1
# JZL-184 + Decitabine = compound: C1CN(CCC1C(C2=CC3=C(C=C2)OCO3)(C4=CC5=C(C=C4)OCO5)O)C(=O)OC6=CC=C(C=C6)[N+](=O)[O-] [JZL-184] + Nc1ncn([C@H]2C[C@H](O)[C@@H](CO)O2)c(=O)n1 [Decitabine] (partner 2 µM)
# In short: as §1
# JZL-184 + Navitoclax = compound: C1CN(CCC1C(C2=CC3=C(C=C2)OCO3)(C4=CC5=C(C=C4)OCO5)O)C(=O)OC6=CC=C(C=C6)[N+](=O)[O-] [JZL-184] + CC1(C)CCC(c2ccc(Cl)cc2)=C(CN2CCN(c3ccc(C(=O)NS(=O)(=O)c4ccc(N[C@H](CCN5CCOCC5)CSc5ccccc5)c(S(=O)(=O)C(F)(F)F)c4)cc3)CC2)C1 [Navitoclax] (partner 0.5 µM)
# In short: as §1
# JZL-184 + Olaparib = compound: C1CN(CCC1C(C2=CC3=C(C=C2)OCO3)(C4=CC5=C(C=C4)OCO5)O)C(=O)OC6=CC=C(C=C6)[N+](=O)[O-] [JZL-184] + O=C(c1cc(Cc2n[nH]c(=O)c3ccccc23)ccc1F)N1CCN(C(=O)C2CC2)CC1 [Olaparib] (partner 8 µM)
# In short: as §1
Cell Line,relative viability (JZL-184 + Foretinib; first compound 0.04 µM),relative viability (JZL-184 + Foretinib; first compound 0.4 µM),relative viability (JZL-184 + Foretinib; first compound 1.265 µM),relative viability (JZL-184 + Foretinib; first compound 4 µM),relative viability (JZL-184 + Dasatinib; first compound 0.04 µM),relative viability (JZL-184 + Dasatinib; first compound 0.4 µM),relative viability (JZL-184 + Dasatinib; first compound 1.265 µM),relative viability (JZL-184 + Dasatinib; first compound 4 µM),relative viability (JZL-184 + Decitabine; first compound 0.04 µM),relative viability (JZL-184 + Decitabine; first compound 0.4 µM),relative viability (JZL-184 + Decitabine; first compound 1.265 µM),relative viability (JZL-184 + Decitabine; first compound 4 µM),relative viability (JZL-184 + Navitoclax; first compound 0.04 µM),relative viability (JZL-184 + Navitoclax; first compound 0.4 µM),relative viability (JZL-184 + Navitoclax; first compound 1.265 µM),relative viability (JZL-184 + Navitoclax; first compound 4 µM),relative viability (JZL-184 + Olaparib; first compound 0.04 µM),relative viability (JZL-184 + Olaparib; first compound 0.4 µM),relative viability (JZL-184 + Olaparib; first compound 1.265 µM),relative viability (JZL-184 + Olaparib; first compound 4 µM)
NCI-H2405,1.08,1.06,1.13,1,0.222,0.21,0.225,0.231,0.792,0.694,0.738,0.767,0.97,0.847,1.03,0.884,0.974,0.901,0.836,0.855
NCI-H2009,1.17,0.809,1.28,1.21,0.354,0.28,0.333,0.239,0.425,0.385,0.363,0.446,1.18,0.951,1.17,1.17,0.785,0.696,0.734,0.642
HCC-78,0.558,0.526,0.515,0.475,0.276,0.359,0.391,0.301,0.77,–,0.793,0.646,0.709,0.75,0.724,0.551,0.823,–,0.831,0.768
NCI-H2170,1.05,0.941,0.977,0.966,0.654,0.476,0.577,0.598,0.497,0.475,0.473,0.476,0.66,0.589,0.621,0.547,0.68,0.613,0.617,0.544
ABC-1,1.23,0.986,1.12,1.09,0.601,0.479,0.533,0.482,1.59,1.07,1.03,1.22,–,–,–,–,0.821,0.814,0.842,0.829
NCI-H1703,0.356,0.317,0.402,0.295,–,–,–,–,–,–,–,–,1.6,0.852,1.54,1.4,0.521,0.434,0.576,0.426
NCI-H661,1.07,1.01,0.992,1.01,0.95,0.851,0.907,0.867,0.624,0.526,0.518,0.537,–,–,–,–,0.825,0.712,0.731,0.748
LCLC-103H,0.833,0.682,0.724,0.529,0.45,0.557,0.489,0.392,0.768,0.817,0.815,0.778,–,–,–,–,0.829,0.767,0.765,0.763
NCI-H2342,1.04,1.11,1.26,1.12,0.317,0.293,0.282,0.368,0.736,0.691,0.716,0.817,–,–,–,–,0.416,0.4,0.383,0.543
SW 900,1.1,0.858,0.824,0.799,0.543,0.619,0.661,0.509,0.465,0.416,0.465,0.451,–,–,–,–,0.966,0.858,0.844,0.898
NCI-H522,–,–,–,–,0.967,0.821,0.842,0.946,0.689,0.615,0.685,0.611,–,–,–,–,0.709,0.62,0.648,0.574
CAL-12T,1.22,1.07,1.07,1.2,0.515,0.254,0.488,0.341,–,–,–,–,1.33,1.1,1.15,1.15,0.836,0.701,0.786,0.777
NCI-H650,1.08,1.12,1.09,1.01,0.439,0.392,0.472,0.441,0.308,0.319,0.317,0.306,–,–,–,–,0.427,0.369,0.438,0.381
NCI-H2228,1.07,0.701,0.992,0.803,0.663,0.445,0.543,0.587,–,–,–,–,0.841,0.823,0.836,0.91,1.13,0.613,0.915,0.977
NCI-H1792,–,–,–,–,0.854,0.771,0.912,0.718,0.668,0.503,0.529,0.597,0.889,0.624,0.675,0.612,0.349,0.304,0.465,0.432
HCC-44,–,–,–,–,–,–,–,–,1.05,0.942,0.964,0.99,1.02,0.953,0.954,0.876,1.04,0.98,0.97,0.928
IA-LM,1.47,1.08,1.22,1.11,–,–,–,–,–,–,–,–,0.983,0.711,0.78,0.794,0.987,0.737,0.827,0.82
NCI-H358,0.758,0.722,0.72,0.649,0.167,0.134,0.15,0.155,0.241,0.211,0.237,0.21,–,–,–,–,0.804,0.637,0.599,0.592
NCI-H1563,0.937,0.888,0.897,0.959,0.515,0.374,0.453,0.474,–,–,–,–,–,–,–,–,–,–,–,–
